Assay results published in patent US20210205323A1, “MAINTENANCE THERAPY OF A PARP INHIBITOR IN TREATING GASTRIC CANCER” (BEIGENE, LTD., priority 2018, published 2021).

Legend:
gastric cancer = details: olaparib added to second-line chemotherapy with paclitaxel; phase III; cited from earlier work
PBMCs = experiment: Clinical pharmacodynamic target modulation in PBMCs; assay type: in vivo; details: in the clinic; recommended Phase 2 dose 60 mg BID
[1] = tested on: BBGA087 patient derived gastric cancer xenograft; experiment: Pamiparib as maintenance therapy after oxaliplatin + 5-FU treatment in the xenograft model; assay type: in vivo, female nod-scid mice
Experimental: (§1) Female nod-scid mice were subcutaneously implanted with BBGA087 patient derived gastric tumor tissue fragments (3×3×3 mm3) in the right flank. After inoculation, tumor volume and body weight were measured twice weekly and calculated using the formula: V=0.5×(a×b2) where a and b were the long and short diameters of the tumor, respectively. When the average tumor size reached 200 mm3, animals were randomly assigned into 3 groups. Animals were treated with vehicle (0.5% methylcellulose, 0.5% MC), pamiparib, oxaliplatin plus 5-Fluorouracil (5-FU), respectively. BGB290 was administered at 6 mg/kg by oral gavage (p.o.) twice daily (BID), oxaliplatin was administered by intraperitoneal (i.p.) injection once per week (QW) for three weeks, and 5-FU was administered by intraperitoneal (i.p.) injection once daily with 5 days per week.
After 28 days, mice treated with oxaliplatin and 5-FU were reallocated into 2 groups according to the tumor volume, and were treated with either placebo (0.5% MC) or pamiparib as maintenance therapy.
(§2) Data is presented as mean tumor volume+standard error of the mean (SEM). Tumor growth inhibition (TGI) is calculated using the following formula: […]

[2] = tested on: BBGA087 patient derived gastric cancer xenograft; experiment: Efficacy of pamiparib and oxaliplatin + 5-FU on tumor growth in a patient derived gastric cancer xenograft; assay type: in vivo, female nod-scid mice; details: BBGA087 model, pamiparib 6 mg/kg p.o. BID
Experimental: as §1, §2

Structure (SMILES) | overall survival (OS) compared with paclitaxel and placebo (gastric cancer) | dose level achieving maximum pharmacodynamic target modulation in PBMCs (PBMCs) | Mean Tumor Volume on Day 32 ([1]; maintenance therapy 6 mg/kg BID after 28 days of oxaliplatin + 5-FU, Day 32) | TGI (%) on Day 32 ([1]; maintenance therapy 6 mg/kg BID after 28 days of oxaliplatin + 5-FU, versus placebo (0.5% MC), Day 32) | tumor relapse on maintenance therapy ([1]; pamiparib 6 mg/kg BID as maintenance versus placebo (0.5% MC) after oxaliplatin + 5-FU) | Mean Tumor Volume on Day 28 ([2]; oxaliplatin 5 mg/kg + 5-FU 15 mg/kg i.p.) | TGI (%) on Day 28 ([2]; oxaliplatin 5 mg/kg i.p. QW*3 plus 5-FU 15 mg/kg i.p. QD*5/week*3)
O=C(c1cc(Cc2n[nH]c(=O)c3ccccc23)ccc1F)N1CCN(C(=O)C2CC2)CC1 [olaparib] | failed to improve overall survival |  |  |  |  |  | 
C[C@]12CCCN1CC1=NNC(=O)c3cc(F)cc4[nH]c2c1c34 [pamiparib] |  | 10 mg BID | 222 mm3 | 96% | tumor relapse was delayed | 921 mm3 | 42%
